Results: patent US20230357179A1, “RAF KINASE INHIBITORS AND METHODS OF USE THEREOF” (Deciphera Pharmaceuticals, LLC, priority 2021, published 2023)

Key:
B-Raf (V600E) kinase [1] = biological target: T1, B-Raf (V600E) kinase (Homo sapiens, UniProt P15056, V600E); assay: Biochemical assay for B-Raf (V600E).1 (coupled pyruvate kinase/lactate dehydrogenase); conditions: read-out: BRAF V600E.1 IC50
T1 construct: B-Raf (V600E) residues 416-766 with a; GST (N); purchased SignalChem
Summary of the method: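 IC50 came from four-parameter sigmoidal fits of percent inhibition, using reaction rates over 3-4 h. Continuous A340 reading (6 h, 30 °C) of a pyruvate kinase/lactate dehydrogenase-coupled reaction: B-Raf V600E 0.03 nM, MEK 30.1 nM, ATP 1 mM, Tris pH 7.5, 1% DMSO.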

A375 cells = assay: A375 cell proliferation assay (1), resazurin, 96-well; assay type: cell-based; conditions: Homo sapiens, A-375, inhibition of cell proliferation
Summary of the method: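 Viability was read by resazurin fluorescence at 540 nm excitation and 600 nm emission, using a 440 μM solution added for 5–6 h at the end of culture. IC50 came from the curve fit.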

Miapaca-2 cells = assay: MiaPaca-2 cell proliferation assay (1), resazurin, 96-well; assay type: cell-based; conditions: Homo sapiens, MIA PaCa-2, inhibition of cell proliferation
Summary of the method: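 Three thousand cells per well in DMEM with 10% FBS and 2.5% horse serum exposed to serially diluted compound in triplicate for 67-72 h at 37 °C, 5% CO2. Viability by resazurin (additional 5-6 h), fluorescence ex 540/em 600 nm; IC50 calculated.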

B-Raf (V600E) kinase [2] = biological target: T1, B-Raf (V600E) kinase; assay: Biochemical assay for B-Raf (V600E).2 (coupled pyruvate kinase/lactate dehydrogenase); conditions: read-out: BRAF V600E.2 IC50
Protocol: Biochemical Assay for B-Raf (V600E).2
Activity of B-Raf (V600E) (SEQ. ID NO: 4) kinase was determined spectroscopically using a coupled pyruvate kinase/lactate dehydrogenase assay that continuously monitors the ATP hydrolysis-dependent oxidation of NADH (e.g., Schindler et al., Science, 2000, 289, 1938-1942). Assays were conducted in 384-well plates (25 μL final volume) using 0.5 nM B-Raf (deCode), 1.5 units pyruvate kinase, 2.1 units lactate dehydrogenase, 1 mM phosphoenol pyruvate, 0.7 mM NADH, 100 nM MEK (SignalChem), and 1 mM ATP in assay buffer (100 mM Tris, pH 7.5, 15 mM MgCl2, 0.5 mM DTT, 0.1% octyl-glucoside, 0.002% (w/v) BSA, and 0.002% Triton X-100). Inhibition of B-Raf (V600E) was measured by adding serial diluted test compound (final assay concentration of 1% DMSO). A decrease in absorption at 340 nm was monitored hourly for 4 h at 30° C. on a multi-mode microplate reader (BioTek). The reaction rate was calculated using the 3 to 4 h time frame. The reaction rate at each concentration of compound was converted to percent inhibition using controls (i.e., reaction with no test compound and reaction with a known inhibitor) and IC50 values were calculated by fitting a four-parameter sigmoidal curve to the data using Prism (GraphPad software).

T1 sequence (P15056 416-766 V600E): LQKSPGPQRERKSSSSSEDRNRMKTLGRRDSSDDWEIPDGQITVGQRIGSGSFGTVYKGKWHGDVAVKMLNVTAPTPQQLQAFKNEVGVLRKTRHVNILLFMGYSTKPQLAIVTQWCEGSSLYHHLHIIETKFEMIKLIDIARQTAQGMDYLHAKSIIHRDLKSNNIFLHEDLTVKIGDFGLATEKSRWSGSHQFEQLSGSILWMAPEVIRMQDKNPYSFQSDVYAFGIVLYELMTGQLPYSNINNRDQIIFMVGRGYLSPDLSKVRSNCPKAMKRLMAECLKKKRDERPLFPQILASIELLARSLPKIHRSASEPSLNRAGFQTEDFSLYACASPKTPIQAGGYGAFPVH

SMILES | IC50 (B-Raf (V600E) kinase [1]) [nM] | IC50 (A375 cells) [nM] | IC50 (Miapaca-2 cells) [nM] | IC50 (B-Raf (V600E) kinase [2]) [nM]
COC(=O)Nc1cc(-c2cccc(-c3cc(NC(=O)NCCC(C)(C)OC)c(F)cc3C)c2)ccn1 [Example 85] | ≤ 100 | 100 to 500 | 500 to 1000 | 
Cc1cc(F)c(NC(=O)NCCC2(C)CC2)cc1-c1cc(OCCO)nc(-c2ccnc3[nH]ncc23)c1 [Example 87] | ≤ 100 | 100 to 500 | 1000 to 10000 | 
Cc1cc(F)c(NC(=O)N[C@@H]2CC[C@H](F)C2)cc1-c1cc(OCCO)nc(-c2ccnc3[nH]ncc23)c1 [Example 88] | ≤ 100 | 1000 to 10000 | 1000 to 10000 | 
Cc1cc(F)c(NC(=O)NCC[C@@H]2CCO2)cc1-c1cc(OCCO)nc(-c2ccnc3[nH]ncc23)c1 [Example 89] | > 1000 | 1000 to 10000 | 1000 to 10000 | 
COC(C)(C)CCNC(=O)Nc1cc(-c2cc(OCCO)nc(-c3ccnc4[nH]ccc34)c2)c(C)cc1F [Example 90] | ≤ 100 | 1000 to 10000 | 1000 to 10000 | 
COC(C)(C)CCNC(=O)Nc1cc(-c2cc(OCCO)nc(-c3ccnc4[nH]ncc34)c2)c(C)cc1F [Example 91] | ≤ 100 | 500 to 1000 | 1000 to 10000 | 
Cc1cc(F)c(NC(=O)N2CCC(C)(C#N)CC2)cc1-c1cc(OCCO)nc(-c2ccnc3[nH]ncc23)c1 [Example 92] | ≤ 100 | 1000 to 10000 | 1000 to 10000 | 
CNC(=O)c1cc(-c2cc(-c3cc(NC(=O)N4CC[C@H](C(F)(F)F)C4)ccc3C)ccn2)ccn1 [Example 215] |  | 1000 to 10000 |  | 100 to 500
CNC(=O)c1cc(-c2cncc(-c3cc(NC(=O)N4CC[C@H](C(F)(F)F)C4)ccc3C)c2)ncn1 [Example 220] |  |  | 1000 to 10000 | 100 to 500
COC(=O)Nc1cc(-c2cncc(-c3cc(NC(=O)N4CC[C@H](C(F)(F)F)C4)ccc3C)c2)ncn1 [Example 224] |  | 100 to 500 |  | ≤ 100
CNC(=O)c1cc(-c2cc(-c3cc(NC(=O)N4CC[C@H](C(C)C)C4)ccc3C)ccn2)ccn1 [Example 225] |  |  |  | ≤ 100
CNC(=O)c1cc(-c2cncc(-c3cc(NC(=O)N4CC[C@H](C(C)C)C4)ccc3C)c2)ncn1 [Example 226] |  |  |  | ≤ 100
Cc1ccc(NC(=O)N2CC[C@H](C)C2)cc1-c1cncc(-c2cc(NC(=O)C3CC3)ncn2)c1 [Example 227] |  |  |  | ≤ 100
CNC(=O)c1cc(-c2cncc(-c3cc(NC(=O)N4CC[C@H](C(F)(F)F)C4)ccc3C)c2)ccn1 [Example 228] |  |  |  | ≤ 100
CNC(=O)c1cc(-c2cncc(-c3cc(NC(=O)N4CC[C@H](C(C)C)C4)ccc3C)c2)ccn1 [Example 229] |  |  |  | ≤ 100
